The assay has as its system CD2F1 mice, L1210 leukemia ip, survival T/C. Put plainly: NCI In Vivo Anticancer Drug Screen. Data for tumor model L1210 Leukemia (intraperitoneal) in CD2F1 (CDF1) mice. To be noted: higher = longer survival. In outline: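 Ratio T/C, where T is the treated-group value and C the vehicle-dosed control value, from mice implanted with a transplantable tumor.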
Setting [1] is: endpoint: mean survival time, dose: 100.0 mg/kg/injection, schedule: Q01DX009 (ip), vehicle: saline.
The mark [2] stands for this setting: endpoint: mean survival time, dose: 100.0 mg/kg/injection, schedule: Q01DX001 (ip), vehicle: saline with Tween-80.
[3] abbreviates: endpoint: mean survival time, dose: 200.0 mg/kg/injection, schedule: Q01DX001 (ip), vehicle: saline with Tween-80.
Where [4] appears, read: endpoint: mean survival time, dose: 100.0 mg/kg/injection, schedule: Q04DX003 (ip), vehicle: saline with Tween-80.
Where [5] appears, read: endpoint: mean survival time, dose: 100.0 mg/kg/injection, schedule: Q04DX003 (ip), vehicle: saline.
The mark [6] stands for this setting: endpoint: mean survival time, dose: 100.0 mg/kg/injection, schedule: Q01DX001 (ip), vehicle: saline.
[7] abbreviates: endpoint: mean survival time, dose: 200.0 mg/kg/injection, schedule: Q04DX003 (ip), vehicle: saline with Tween-80.
The mark [8] stands for this setting: endpoint: mean survival time, dose: 400.0 mg/kg/injection, schedule: Q04DX003 (ip), vehicle: saline with Tween-80.
Where [9] appears, read: endpoint: mean survival time, dose: 100.0 mg/kg/injection, schedule: Q04DX002 (ip), vehicle: saline with Tween-80.
[10] abbreviates: endpoint: mean survival time, dose: 200.0 mg/kg/injection, schedule: Q04DX002 (ip), vehicle: saline with Tween-80.
Setting [11] is: endpoint: mean survival time, dose: 400.0 mg/kg/injection, schedule: Q04DX002 (ip), vehicle: saline with Tween-80.

Structures are written as SMILES. “And” between values parts separate entries of the source, which are not always exact repeats. Identical values can stand only once. Toxic doses and inconclusive results are not listed.

Take `CC(=O)OCC1OC(N2CN=C(N)NC2=O)C(OC(C)=O)C1OC(C)=O` (stereo not drawn): the T/C reads like this: (endpoint: mean survival time, dose: 3.12 mg/kg/injection, schedule: Q01DX009 (ip), vehicle: saline) 109 % of control; (endpoint: mean survival time, dose: 6.25 mg/kg/injection, schedule: Q01DX009 (ip), vehicle: saline) 108 % of control; (endpoint: mean survival time, dose: 12.5 mg/kg/injection, schedule: Q01DX009 (ip), vehicle: saline) 115 % of control and 110 % of control; (endpoint: mean survival time, dose: 50.0 mg/kg/injection, schedule: Q01DX009 (ip), vehicle: saline) 178 % of control and 183 % of control; under setting [1], 203 % of control and 208 % of control.
Turning to `Cn1c(=O)[nH]c2nncnc2c1=O`, the T/C was 103 % of control (endpoint: mean survival time, dose: 2.0 mg/kg/injection, schedule: Q01DX009 (ip), vehicle: water); 97 % of control (endpoint: mean survival time, dose: 4.0 mg/kg/injection, schedule: Q01DX009 (ip), vehicle: water); 97 % of control (endpoint: mean survival time, dose: 8.0 mg/kg/injection, schedule: Q01DX009 (ip), vehicle: water); 98 % of control (endpoint: mean survival time, dose: 16.0 mg/kg/injection, schedule: Q01DX009 (ip), vehicle: water); 101 % of control (endpoint: mean survival time, dose: 32.0 mg/kg/injection, schedule: Q01DX009 (ip), vehicle: water); 100 % of control (endpoint: mean survival time, dose: 375.0 micrograms/kg/injection, schedule: Q01DX009 (ip), vehicle: saline). The T/C by setting is: (endpoint: mean survival time, dose: 750.0 micrograms/kg/injection, schedule: Q01DX009 (ip), vehicle: saline) 104 % of control; (endpoint: mean survival time, dose: 1500.0 micrograms/kg/injection, schedule: Q01DX009 (ip), vehicle: saline) 100 % of control; (endpoint: mean survival time, dose: 3000.0 micrograms/kg/injection, schedule: Q01DX009 (ip), vehicle: saline) 100 % of control.
Consider `CCN(CC)c1ccc(C)cc1Cl`, for which, where the note is “endpoint: mean survival time, dose: 100.0 mg/kg/injection, schedule: Q04DX003 (ip), vehicle: saline sonified”, the T/C was 102 % of control.
Take `C=CCCCCCCCCC(=O)NC(C)COC` (stereo not drawn): the T/C is, setting by setting: under setting [2], 107 % of control; under setting [3], 98 % of control.
Turning to `CC(=O)NC(C=O)OCC=O` (stereo not drawn), the T/C is, setting by setting: (endpoint: median survival time, dose: 6.0 mg/kg/injection, schedule: Q01DX009 (ip), vehicle: water) 100 % of control; (endpoint: median survival time, dose: 6.25 mg/kg/injection, schedule: Q01DX009 (ip), vehicle: water) 105 % of control; (endpoint: median survival time, dose: 12.0 mg/kg/injection, schedule: Q01DX009 (ip), vehicle: water) 103 % of control; (endpoint: median survival time, dose: 12.5 mg/kg/injection, schedule: Q01DX009 (ip), vehicle: water) 105 % of control; (endpoint: median survival time, dose: 25.0 mg/kg/injection, schedule: Q01DX009 (ip), vehicle: water) 105 % of control and 108 % of control; (endpoint: median survival time, dose: 50.0 mg/kg/injection, schedule: Q01DX009 (ip), vehicle: water) 102 % of control and 108 % of control. Moreover, the T/C by setting is: (endpoint: median survival time, dose: 100.0 mg/kg/injection, schedule: Q01DX009 (ip), vehicle: water) 116 % of control and 111 % of control; (endpoint: median survival time, dose: 200.0 mg/kg/injection, schedule: Q01DX009 (ip), vehicle: water) 115 % of control and 108 % of control.
As for `CC(C)[C@]1(O)CC[C@H]2[C@@H]3CCc4cc(O)ccc4[C@H]3CC[C@@]21C`, the T/C is 104 % of control (endpoint: mean survival time, dose: 100.0 mg/kg/injection, schedule: Q01DX009 (sc), vehicle: Klucel (hydroxypropylcellulose) (HPC)); 98 % of control (endpoint: mean survival time, dose: 200.0 mg/kg/injection, schedule: Q01DX009 (sc), vehicle: Klucel (hydroxypropylcellulose) (HPC)); 92 % of control (endpoint: mean survival time, dose: 400.0 mg/kg/injection, schedule: Q01DX009 (sc), vehicle: Klucel (hydroxypropylcellulose) (HPC)).
On to `C[n+]1ccccc1C#N`, for which the T/C is, setting by setting: (endpoint: mean survival time, dose: 25.0 mg/kg/injection, schedule: Q01DX009 (ip), vehicle: saline sonified) 102 % of control; (endpoint: mean survival time, dose: 50.0 mg/kg/injection, schedule: Q01DX009 (ip), vehicle: saline sonified) 102 % of control; under setting [4], 95 % of control.
Consider `Cc1ccc(N=Nc2ccc(N(C)C)cc2)c2cccnc12`, for which the T/C (endpoint: mean survival time, dose: 100.0 mg/kg/injection, schedule: Q01DX009 (ip), vehicle: saline with Tween-80) was 104 % of control.
Regarding `O=S(=O)(O)SCC1=NCCCCN1`, under setting [4], the T/C was 101 % of control.
On to `Cc1ccc(S(=O)(=O)OC2CCCCC2c2ccc(C(F)(F)F)cc2)cc1` (stereo not drawn), for which the T/C by setting is: (endpoint: mean survival time, dose: 75.0 mg/kg/injection, schedule: Q01DX001 (ip), vehicle: other) 96 % of control; (endpoint: mean survival time, dose: 150.0 mg/kg/injection, schedule: Q01DX001 (ip), vehicle: other) 88 % of control; (endpoint: mean survival time, dose: 300.0 mg/kg/injection, schedule: Q01DX001 (ip), vehicle: other) 88 % of control.
As to `CC(=O)/C(=C\c1ccccc1)CNC(C)(C)C`, the T/C runs as follows: (endpoint: mean survival time, dose: 25.0 mg/kg/injection, schedule: Q01DX001 (ip), vehicle: saline with Tween-80) 92 % of control; (endpoint: mean survival time, dose: 50.0 mg/kg/injection, schedule: Q01DX001 (ip), vehicle: saline with Tween-80) 100 % of control; under setting [2], 100 % of control.
For the compound `C[Si](OCc1ccc(-c2ccccc2)cc1)c1ccccc1`, the T/C under setting [1] was 99 % of control; the T/C under setting [5] was 96 % of control; the T/C (endpoint: mean survival time, dose: 200.0 mg/kg/injection, schedule: Q01DX009 (ip), vehicle: saline) was 100 % of control; the T/C (endpoint: mean survival time, dose: 200.0 mg/kg/injection, schedule: Q04DX003 (ip), vehicle: saline) was 93 % of control; the T/C (endpoint: mean survival time, dose: 400.0 mg/kg/injection, schedule: Q01DX009 (ip), vehicle: saline) was 94 % of control; the T/C (endpoint: mean survival time, dose: 400.0 mg/kg/injection, schedule: Q04DX003 (ip), vehicle: saline) was 98 % of control.
For the compound `CCCCC(CC)CNC(=O)CI` (stereo not drawn), the T/C under setting [6] was 96 % of control.
`[Cl][Pt+2][Cl].[NH-]C(CC([NH-])c1ccccc1)c1ccccc1` (stereo not drawn): the T/C by setting is: (endpoint: mean survival time, dose: 6.25 mg/kg/injection, schedule: Q04DX003 (ip), vehicle: saline with Tween-80) 119 % of control and 113 % of control and 115 % of control; (endpoint: mean survival time, dose: 12.5 mg/kg/injection, schedule: Q04DX003 (ip), vehicle: saline with Tween-80) 121 % of control and 113 % of control and 119 % of control; (endpoint: mean survival time, dose: 25.0 mg/kg/injection, schedule: Q04DX003 (ip), vehicle: saline with Tween-80) 122 % of control and 113 % of control and 119 % of control.
Consider `O=S(=O)(Nc1ccccn1)c1ccc(Cl)cc1`, for which the T/C under setting [4] was 91 % of control, the T/C under setting [7] was 95 % of control and the T/C under setting [8] was 90 % of control.
Turning to `CCOP(=S)(OCC)C(C)(C)C`, the T/C under setting [9] is 107 % of control, the T/C under setting [10] was 103 % of control and the T/C under setting [11] is 95 % of control.
Turning to `CC(C)=NC(=O)NO.[Cl][Co][Cl]`, the T/C (endpoint: mean survival time, dose: 50.0 mg/kg/injection, schedule: Q04DX003 (ip), vehicle: saline) was 109 % of control; the T/C (endpoint: mean survival time, dose: 75.0 mg/kg/injection, schedule: Q04DX003 (ip), vehicle: saline) was 113 % of control; the T/C under setting [5] is 100 % of control; the T/C (endpoint: mean survival time, dose: 125.0 mg/kg/injection, schedule: Q04DX003 (ip), vehicle: saline) is 113 % of control.
`C#CCSc1c(Cl)c(Cl)c(Cl)c(Cl)c1Cl`: the T/C is, setting by setting: under setting [9], 87 % of control; under setting [10], 95 % of control; under setting [11], 87 % of control.
For the compound `COc1ccc(NC(=O)Oc2c(C)cccc2C)cc1`, the T/C is 97 % of control under setting [9], 97 % of control under setting [10] and 101 % of control under setting [11].
On to `CC(C)(C)OC(=O)NCCCCC(NC(=O)OC(C)(C)C)C(=O)O` (stereo not drawn), for which the T/C was 100 % of control under setting [6]; 110 % of control (endpoint: mean survival time, dose: 200.0 mg/kg/injection, schedule: Q01DX001 (ip), vehicle: saline); 97 % of control (endpoint: mean survival time, dose: 400.0 mg/kg/injection, schedule: Q01DX001 (ip), vehicle: saline).
For the compound `COC(=O)c1ccc(-n2cc(C(=O)OC)c([N+]#N)c2[O-])cc1`, the T/C under setting [9] was 107 % of control; the T/C under setting [10] is 88 % of control; the T/C under setting [7] was 93 % of control; the T/C under setting [11] is 107 % of control; the T/C under setting [8] is 93 % of control.
Take `COc1ccc(/C=C/C(=O)Oc2cc(O)cc(O)c2)cc1`: the T/C reads like this: (endpoint: mean survival time, dose: 12.5 mg/kg/injection, schedule: Q04DX002 (ip), vehicle: saline with Tween-80) 97 % of control; (endpoint: mean survival time, dose: 25.0 mg/kg/injection, schedule: Q04DX002 (ip), vehicle: saline with Tween-80) 93 % of control; (endpoint: mean survival time, dose: 50.0 mg/kg/injection, schedule: Q04DX002 (ip), vehicle: saline with Tween-80) 101 % of control; under setting [3], 94 % of control; (endpoint: mean survival time, dose: 400.0 mg/kg/injection, schedule: Q01DX001 (ip), vehicle: saline with Tween-80) 92 % of control.

Values taken from PubChem BioAssay AID256 (DTP/NCI, 2004).
